Converted amounts (≈) assume the structure as drawn.
How the values were obtained:
Assay type in all cases: functional
Pichia kudriavzevii = experiment: Antifungal activity against Pichia kudriavzevii assessed as fungal growth inhibition by CLSI based microdilution method
Candida albicans [1] = experiment: Antifungal activity against Candida albicans SC5314 assessed as fungal growth inhibition by CLSI based microdilution method
Cryptococcus neoformans = experiment: Antifungal activity against Cryptococcus neoformans assessed as fungal growth inhibition by CLSI based microdilution method
Candida albicans [2] = experiment: Antifungal activity against Candida albicans CPCC400616 assessed as fungal growth inhibition by CLSI based microdilution method
Candida tropicalis = experiment: Antifungal activity against Candida tropicalis assessed as fungal growth inhibition by CLSI based microdilution method
Candida parapsilosis = experiment: Antifungal activity against Candida parapsilosis assessed as fungal growth inhibition by CLSI based microdilution method; settings: Lodderomyces parapsilosis
Nakaseomyces glabratus = experiment: Antifungal activity against Candida glabrata assessed as fungal growth inhibition by CLSI based microdilution method
Candida albicans [3] = experiment: Antifungal activity against fluconazole-resistant Candida albicans 632 assessed as fungal growth inhibition by CLSI based microdilution method
Candida albicans [4] = experiment: Antifungal activity against fluconazole-resistant Candida albicans CaR assessed as fungal growth inhibition by CLSI based microdilution method
Candida albicans [5] = experiment: Antifungal activity against fluconazole-resistant Candida albicans 17# assessed as fungal growth inhibition by CLSI based microdilution method
Candida albicans [6] = experiment: Antifungal activity against fluconazole-resistant Candida albicans 904 assessed as fungal growth inhibition by CLSI based microdilution method
Candida albicans [7] = experiment: Antifungal activity against fluconazole-resistant Candida albicans 901 assessed as fungal growth inhibition by CLSI based microdilution method

Compound	MIC (Pichia kudriavzevii)	MIC (Candida albicans [1])	MIC (Cryptococcus neoformans)	MIC (Candida albicans [2])	MIC (Candida tropicalis)	MIC (Candida parapsilosis)	MIC (Nakaseomyces glabratus)	MIC (Candida albicans [3])	MIC (Candida albicans [4])	MIC (Candida albicans [5])	MIC (Candida albicans [6])	MIC (Candida albicans [7])
O=c1oc2c(Cl)cc(Cl)cc2cc1COC(Cn1ccnc1)c1ccc(Cl)cc1Cl (stereo not given)	> 128 µg/mL	128 µg/mL (≈ 264 µM)	16 µg/mL (≈ 33 µM)	> 128 µg/mL	> 128 µg/mL	> 128 µg/mL	> 128 µg/mL					
O=c1oc2ccc(Cl)cc2cc1COC(Cn1ccnc1)c1ccc(Cl)cc1Cl (stereo not given)	128 µg/mL (≈ 285 µM)	0.25 µg/mL (≈ 0.556 µM)	16 µg/mL (≈ 35.6 µM)	16 µg/mL (≈ 35.6 µM)	128 µg/mL (≈ 285 µM)	16 µg/mL (≈ 35.6 µM)	128 µg/mL (≈ 285 µM)					
COc1cccc2cc(COC(Cn3ccnc3)c3ccc(Cl)cc3Cl)c(=O)oc12 (stereo not given)	32 µg/mL (≈ 71.9 µM)	0.25 µg/mL (≈ 0.561 µM)	0.5 µg/mL (≈ 1.12 µM)	0.25 µg/mL (≈ 0.561 µM)	128 µg/mL (≈ 287 µM)	0.5 µg/mL (≈ 1.12 µM)	32 µg/mL (≈ 71.9 µM)					
CCC(C)n1ncn(-c2ccc(N3CCN(c4ccc(OCC5COC(Cn6cncn6)(c6ccc(Cl)cc6Cl)O5)cc4)CC3)cc2)c1=O (stereo not given) [ITRACONAZOLE]								64 µg/mL (≈ 90.7 µM)	64 µg/mL (≈ 90.7 µM)	128 µg/mL (≈ 181 µM)	> 128 µg/mL	> 128 µg/mL
O=c1oc2ccccc2cc1COC(Cn1ccnc1)c1ccc(F)cc1F (stereo not given)	0.5 µg/mL (≈ 1.31 µM)	0.03 µg/mL (≈ 0.0785 µM)	0.06 µg/mL (≈ 0.157 µM)	0.06 µg/mL (≈ 0.157 µM)	1 µg/mL (≈ 2.62 µM)	< 0.25 µg/mL	1 µg/mL (≈ 2.62 µM)	4 µg/mL (≈ 10.5 µM)	0.5 µg/mL (≈ 1.31 µM)	2 µg/mL (≈ 5.23 µM)	2 µg/mL (≈ 5.23 µM)	16 µg/mL (≈ 41.8 µM)
O=c1oc2ccc(F)cc2cc1COC(Cn1ccnc1)c1ccc(Cl)cc1Cl (stereo not given)	2 µg/mL (≈ 4.62 µM)	0.25 µg/mL (≈ 0.577 µM)	0.5 µg/mL (≈ 1.15 µM)	0.5 µg/mL (≈ 1.15 µM)	64 µg/mL (≈ 148 µM)	0.5 µg/mL (≈ 1.15 µM)	2 µg/mL (≈ 4.62 µM)					
O=c1ccc2ccccc2o1 [COUMARIN]	> 128 µg/mL	> 128 µg/mL	> 128 µg/mL	> 128 µg/mL	> 128 µg/mL	> 128 µg/mL	> 128 µg/mL	> 128 µg/mL	> 128 µg/mL	128 µg/mL (≈ 876 µM)	> 128 µg/mL	> 128 µg/mL
O=c1oc2ccccc2cc1COC(Cn1ccnn1)c1ccc(F)cc1F (stereo not given)	64 µg/mL (≈ 167 µM)	128 µg/mL (≈ 334 µM)	64 µg/mL (≈ 167 µM)	> 128 µg/mL	> 128 µg/mL	> 128 µg/mL	> 128 µg/mL					
O=c1ccc2cc(COC(Cn3ccnn3)c3ccc(F)cc3F)ccc2o1 (stereo not given)	> 128 µg/mL	> 128 µg/mL	> 128 µg/mL	> 128 µg/mL	> 128 µg/mL	128 µg/mL (≈ 334 µM)	> 128 µg/mL					
O=c1ccc2cc(COC(Cn3cncn3)c3ccc(F)cc3F)ccc2o1 (stereo not given)	32 µg/mL (≈ 83.5 µM)	0.25 µg/mL (≈ 0.652 µM)	64 µg/mL (≈ 167 µM)	8 µg/mL (≈ 20.9 µM)	64 µg/mL (≈ 167 µM)	4 µg/mL (≈ 10.4 µM)	16 µg/mL (≈ 41.7 µM)					
O=c1ccc2cc(COC(Cn3cnnn3)c3ccc(F)cc3F)ccc2o1 (stereo not given)	128 µg/mL (≈ 333 µM)	2 µg/mL (≈ 5.2 µM)	64 µg/mL (≈ 167 µM)	1 µg/mL (≈ 2.6 µM)	0.5 µg/mL (≈ 1.3 µM)	16 µg/mL (≈ 41.6 µM)	16 µg/mL (≈ 41.6 µM)					
O=c1ccc2cc(COC(Cn3cnnn3)c3ccc(Cl)cc3Cl)ccc2o1 (stereo not given)	64 µg/mL (≈ 153 µM)	2 µg/mL (≈ 4.79 µM)	128 µg/mL (≈ 307 µM)	1 µg/mL (≈ 2.4 µM)	32 µg/mL (≈ 76.7 µM)	32 µg/mL (≈ 76.7 µM)	16 µg/mL (≈ 38.3 µM)					
COc1cccc2cc(COC(Cn3ccnc3)c3ccc(F)cc3F)c(=O)oc12 (stereo not given)	2 µg/mL (≈ 4.85 µM)	0.25 µg/mL (≈ 0.606 µM)	0.06 µg/mL (≈ 0.145 µM)	0.25 µg/mL (≈ 0.606 µM)	32 µg/mL (≈ 77.6 µM)	0.06 µg/mL (≈ 0.145 µM)	4 µg/mL (≈ 9.7 µM)					
O=c1ccc2cc(COC(Cn3ccnn3)c3ccc(Cl)cc3Cl)ccc2o1 (stereo not given)	128 µg/mL (≈ 307 µM)	128 µg/mL (≈ 307 µM)	128 µg/mL (≈ 307 µM)	> 128 µg/mL	64 µg/mL (≈ 154 µM)	64 µg/mL (≈ 154 µM)	64 µg/mL (≈ 154 µM)					
O=c1oc2ccccc2cc1COC(Cn1ccnn1)c1ccc(Cl)cc1Cl (stereo not given)	128 µg/mL (≈ 307 µM)	128 µg/mL (≈ 307 µM)	32 µg/mL (≈ 76.9 µM)	128 µg/mL (≈ 307 µM)	> 128 µg/mL	> 128 µg/mL	> 128 µg/mL					
O=c1oc2ccc(F)cc2cc1COC(Cn1ccnc1)c1ccc(F)cc1F (stereo not given)	4 µg/mL (≈ 9.99 µM)	1 µg/mL (≈ 2.5 µM)	0.5 µg/mL (≈ 1.25 µM)	1 µg/mL (≈ 2.5 µM)	8 µg/mL (≈ 20 µM)	0.5 µg/mL (≈ 1.25 µM)	2 µg/mL (≈ 5 µM)					
C[C@@H](c1ncncc1F)[C@](O)(Cn1cncn1)c1ccc(F)cc1F [VORICONAZOLE]								64 µg/mL (≈ 183 µM)	> 128 µg/mL	128 µg/mL (≈ 366 µM)	> 128 µg/mL	> 128 µg/mL

Reference: ChEMBL document CHEMBL5365497, “Developing Novel Coumarin-Containing Azoles Antifungal Agents by the Scaffold Merging Strategy for Treating Azole-Resistant Candidiasis” (J Med Chem, 2023)
